Experimental data: patent publication US20240368118A1, “CEREBLON BINDING COMPOUNDS, COMPOSITIONS THEREOF, AND METHODS OF TREATMENT THEREWITH” (CELGENE CORPORATION, priority 2021, published 2024)
Where a name gives a salt, the structure may show the parent alone.

Target: T1, AR (Homo sapiens, UniProt P10275)
T1 construct: endogenous in cells; host or cells: VCaP cells
T1 sequence (P10275 1-920): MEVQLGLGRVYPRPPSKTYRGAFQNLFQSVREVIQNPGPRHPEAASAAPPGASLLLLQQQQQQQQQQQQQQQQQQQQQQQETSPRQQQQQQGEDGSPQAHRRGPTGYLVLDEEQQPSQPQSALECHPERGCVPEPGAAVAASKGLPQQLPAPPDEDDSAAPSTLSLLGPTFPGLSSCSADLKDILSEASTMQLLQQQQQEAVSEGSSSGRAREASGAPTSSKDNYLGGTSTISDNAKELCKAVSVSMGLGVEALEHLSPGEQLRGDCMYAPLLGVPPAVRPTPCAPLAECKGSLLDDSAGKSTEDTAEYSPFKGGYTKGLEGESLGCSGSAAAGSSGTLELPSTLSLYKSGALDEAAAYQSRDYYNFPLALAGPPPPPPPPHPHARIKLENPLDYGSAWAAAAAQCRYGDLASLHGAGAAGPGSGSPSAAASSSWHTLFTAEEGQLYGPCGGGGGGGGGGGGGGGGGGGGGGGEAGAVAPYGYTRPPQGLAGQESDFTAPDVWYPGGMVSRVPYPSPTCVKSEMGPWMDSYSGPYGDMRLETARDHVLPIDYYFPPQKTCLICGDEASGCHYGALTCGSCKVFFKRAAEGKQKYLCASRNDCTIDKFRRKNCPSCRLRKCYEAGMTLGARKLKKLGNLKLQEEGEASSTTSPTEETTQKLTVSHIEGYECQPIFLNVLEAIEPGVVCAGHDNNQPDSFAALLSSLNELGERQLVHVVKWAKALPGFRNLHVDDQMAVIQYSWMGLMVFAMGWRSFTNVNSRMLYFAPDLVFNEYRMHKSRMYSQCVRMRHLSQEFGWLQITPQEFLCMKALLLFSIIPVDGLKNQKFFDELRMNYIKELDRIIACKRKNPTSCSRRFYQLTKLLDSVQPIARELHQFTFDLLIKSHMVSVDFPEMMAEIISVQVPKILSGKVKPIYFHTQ
Experiment: VCAP AR Degradation Assay
Type: cell-based
Details: VCaP cells, 24 h; for DC50: AR ELISA, concentration when AR level = 50% of DMSO control; for Ymin: lowest AR level normalized to DMSO control, class symbols
Experimental: VCAP AR Degradation Assay. Test compounds were pre-dispensed into a Corning CellBind 96-well clear bottom plate (Cat #3300) using an acoustic dispenser to make a 10-point concentration series at 1:3 dilution for each compound. The final top concentration of each compound was 5 μM. DMSO at a final concentration of 0.1% was used as a control. VCaP cells cultured in DMEM with 8% fetal bovine serum (FBS) were seeded at 50K cells per well in a 200 μL volume into the compound plate and incubated at 37° C. in a C02 incubator for 24 h. The medium was carefully removed from the cells and the plate was placed on ice. One hundred μL of ice-cold 1× cell lysis buffer from Cell Signaling Technologies (Cat #9803) was added to each well of the cells and the plate was incubated at 4° C. on a shaker for 1 h. Fifteen μL of cell lysate was used for AR ELISA detection using a PathScan Total Sandwich AR ELISA kit (Cell Signaling Technology, Cat #12580). AR levels in compound-treated wells were normalized to that of DMSO control and expressed as percent of control (PoC) (y). A Four Parameter Logistic Model (Sigmoidal Dose-Response Model) was used to determine the compound's DC50, and EC50, using the following equation: […]
The lowest measured AR level normalized to DMSO control in response to compound treatment, termed Y value, was used to characterize the compound-mediated AR degradation efficiency.

Question: Which DC50 does the source give for `C[C@@H]1CN(CCO[C@H]2CC[C@H](N3C(=S)N(c4ccc(C#N)c(C(F)(F)F)c4)C(=O)C3(C)C)CC2)C[C@H](C)N1CC(=O)Nc1ccc(C2(C)CCC(=O)NC2=O)cc1` (single isomer, unassigned) [Cmpd 9, hydrochloride] here?
Answer: 0.1 to 10 µM

Question: And the Ymin?
Answer: *** (30%<Y<80%)

Question: What does the source list for `C[C@@H]1CN(CCO[C@H]2CC[C@H](N3C(=S)N(c4ccc(C#N)c(C(F)(F)F)c4)C(=O)C3(C)C)CC2)C[C@H](C)N1CC(=O)Nc1ccc(C2(C)CCC(=O)NC2=O)cc1` (single isomer, unassigned) [Cmpd 10, hydrochloride]?
Answer: DC50: 0.1 to 10 µM; Ymin: *** (30%<Y<80%)

Question: With `C[C@@H]1CN(CCO[C@H]2CC[C@H](N3C(=S)N(c4ccc(C#N)c(C(F)(F)F)c4)C(=O)C3(C)C)CC2)C[C@H](C)N1CC(=O)Nc1ccc(N2CCC(=O)NC2=O)cc1` [Cmpd 1, 2-((2S,6R)-4-(2-((trans-4-(3-(4-Cyano-3-(trifluoromethyl)phenyl)-5,5-dimethyl-4-oxo-2-thioxoimidazolidin-1-yl)cyclohexyl)oxy)ethyl)-2,6-dimethylpiperazin-1-yl)-N-(4-(2,4-dioxotetrahydropyrimidin-1(2H)-yl)phenyl)acetamide hydrochloride] as the molecule, how does the DC50 read?
Answer: 0.1 to 10 µM

Question: And the Ymin?
Answer: *** (30%<Y<80%)

Question: What does the source list for `C[C@@H]1CN(CCO[C@H]2CC[C@H](N3C(=S)N(c4ccc(C#N)c(C(F)(F)F)c4)C(=O)C3(C)C)CC2)C[C@H](C)N1CC(=O)Nc1ccc(C2CCC(=O)NC2=O)cc1` (stereo partly drawn) [Cmpd 2, 2-((2S,6R)-4-(2-((trans-4-(3-(4-Cyano-3-(trifluoromethyl)phenyl)-5,5-dimethyl-4-oxo-2-thioxoimidazolidin-1-yl)cyclohexyl)oxy)ethyl)-2,6-dimethylpiperazin-1-yl)-N-(4-(2,6-dioxopiperidin-3-yl)phenyl)acetamide hydrochloride]?
Answer: DC50: 0.005 to 0.015 µM; Ymin: *** (30%<Y<80%)

Question: `C[C@@H]1CN(CCC[C@H]2CC[C@H](N3C(=S)N(c4ccc(C#N)c(C(F)(F)F)c4)C(=O)C3(C)C)CC2)C[C@H](C)N1CC(=O)Nc1ccc(C2CCC(=O)NC2=O)cc1` (stereo partly drawn) [Cmpd 3, 2-((2R,6S)-4-(3-(trans-4-(3-(4-Cyano-3-(trifluoromethyl)phenyl)-5,5-dimethyl-4-oxo-2-thioxoimidazolidin-1-yl)cyclohexyl)propyl)-2,6-dimethylpiperazin-1-yl)-N-(4-(2,6-dioxopiperidin-3-yl)phenyl)acetamide hydrochloride] was tested. Which DC50 did it give?
Answer: 0.005 to 0.015 µM

Question: And the Ymin?
Answer: ** (20%<Y≤30%)

Question: How did the DC50 turn out when `C[C@@H]1CN(CCO[C@H]2CC[C@H](N3C(=S)N(c4ccc(C#N)c(Cl)c4)C(=O)C3(C)C)CC2)C[C@H](C)N1CC(=O)Nc1ccc(C2CCC(=O)NC2=O)cc1` (stereo partly drawn) [Cmpd 4, 2-((2R,6S)-4-(2-((trans-4-(3-(3-Chloro-4-cyanophenyl)-5,5-dimethyl-4-oxo-2-thioxoimidazolidin-1-yl)cyclohexyl)oxy)ethyl)-2,6-dimethylpiperazin-1-yl)-N-(4-(2,6-dioxopiperidin-3-yl)phenyl)acetamide hydrochloride] was run?
Answer: ≤ 0.005 µM

Question: And the Ymin?
Answer: *** (30%<Y<80%)

Question: What does the source list for `C[C@@H]1CN(CCO[C@H]2CC[C@H](N3C(=S)N(c4ccc(C#N)c(C(F)(F)F)c4)C(=O)C3(C)C)CC2)C[C@H](C)N1CCC(=O)Nc1ccc(C2CCC(=O)NC2=O)cc1` (stereo partly drawn) [Cmpd 5, 3-((2R,6S)-4-(2-((trans-4-(3-(4-Cyano-3-(trifluoromethyl)phenyl)-5,5-dimethyl-4-oxo-2-thioxoimidazolidin-1-yl)cyclohexyl)oxy)ethyl)-2,6-dimethylpiperazin-1-yl)-N-(4-(2,6-dioxopiperidin-3-yl)phenyl)propanamide]?
Answer: DC50: 0.005 to 0.015 µM; Ymin: *** (30%<Y<80%)

Question: For `C[C@@H]1CN(CCO[C@H]2CC[C@H](N3C(=S)N(c4cnc(C#N)c(C(F)(F)F)c4)C(=O)C3(C)C)CC2)C[C@H](C)N1CC(=O)Nc1ccc(C2CCC(=O)NC2=O)cc1` (stereo partly drawn) [Cmpd 6, 2-((2R,6S)-4-(2-((trans-4-(3-(6-Cyano-5-(trifluoromethyl)pyridin-3-yl)-5,5-dimethyl-4-oxo-2-thioxoimidazolidin-1-yl)cyclohexyl)oxy)ethyl)-2,6-dimethylpiperazin-1-yl)-N-(4-(2,6-dioxopiperidin-3-yl)phenyl)acetamide hydrochloride], which DC50 is on record?
Answer: ≤ 0.005 µM

Question: What about the Ymin of the same molecule?
Answer: *** (30%<Y<80%)

Question: `CC[C@]1(c2ccc(NC(=O)CN3[C@H](C)CN(CCO[C@H]4CC[C@H](N5C(=S)N(c6ccc(C#N)c(C(F)(F)F)c6)C(=O)C5(C)C)CC4)C[C@@H]3C)cc2)CCC(=O)NC1=O` [Cmpd 7, 2-((2S,6R)-4-(2-((trans-4-(3-(4-Cyano-3-(trifluoromethyl)phenyl)-5,5-dimethyl-4-oxo-2-thioxoimidazolidin-1-yl)cyclohexyl)oxy)ethyl)-2,6-dimethylpiperazin-1-yl)-N-(4-((R)-3-ethyl-2,6-dioxopiperidin-3-yl)phenyl)acetamide hydrochloride] was tested. Which DC50 did it give?
Answer: 0.1 to 10 µM

Question: And the Ymin?
Answer: *** (30%<Y<80%)

Question: Which results are given for `CC[C@@]1(c2ccc(NC(=O)CN3[C@H](C)CN(CCO[C@H]4CC[C@H](N5C(=S)N(c6ccc(C#N)c(C(F)(F)F)c6)C(=O)C5(C)C)CC4)C[C@@H]3C)cc2)CCC(=O)NC1=O` [Cmpd 8, 2-((2S,6R)-4-(2-((trans-4-(3-(4-Cyano-3-(trifluoromethyl)phenyl)-5,5-dimethyl-4-oxo-2-thioxoimidazolidin-1-yl)cyclohexyl)oxy)ethyl)-2,6-dimethylpiperazin-1-yl)-N-(4-((S)-3-ethyl-2,6-dioxopiperidin-3-yl)phenyl)acetamide hydrochloride]?
Answer: DC50: 0.1 to 10 µM; Ymin: *** (30%<Y<80%)

Question: `C[C@@H]1CN(CCO[C@H]2CC[C@H](N3C(=S)N(c4cnc(C#N)c(Cl)c4)C(=O)C3(C)C)CC2)C[C@H](C)N1CC(=O)Nc1ccc(C2CCC(=O)NC2=O)cc1` (stereo partly drawn) [Cmpd 11, 2-((2R,6S)-4-(2-((trans-4-(3-(5-Chloro-6-cyanopyridin-3-yl)-5,5-dimethyl-4-oxo-2-thioxoimidazolidin-1-yl)cyclohexyl)oxy)ethyl)-2,6-dimethylpiperazin-1-yl)-N-(4-(2,6-dioxopiperidin-3-yl)phenyl)acetamide hydrochloride] was tested. Which DC50 did it give?
Answer: ≤ 0.005 µM

Question: What about the Ymin of the same molecule?
Answer: ** (20%<Y≤30%)

Question: What does the source list for `C[C@@H]1CN(CCCO[C@H]2CC[C@H](N3C(=S)N(c4ccc(C#N)c(C(F)(F)F)c4)C(=O)C3(C)C)CC2)C[C@H](C)N1CC(=O)Nc1ccc(C2CCC(=O)NC2=O)cc1` (stereo partly drawn) [Cmpd 12, 2-((2R,6S)-4-(3-((trans-4-(3-(4-Cyano-3-(trifluoromethyl)phenyl)-5,5-dimethyl-4-oxo-2-thioxoimidazolidin-1-yl)cyclohexyl)oxy)propyl)-2,6-dimethylpiperazin-1-yl)-N-(4-(2,6-dioxopiperidin-3-yl)phenyl)acetamide hydrochloride]?
Answer: DC50: ≤ 0.005 µM; Ymin: ** (20%<Y≤30%)

Question: `C[C@@H]1CN(CCCO[C@H]2CC[C@H](N3C(=S)N(c4cnc(C#N)c(C(F)(F)F)c4)C(=O)C3(C)C)CC2)C[C@H](C)N1CC(=O)Nc1ccc(C2CCC(=O)NC2=O)cc1` (stereo partly drawn) [Cmpd 13, 2-((2R,6S)-4-(3-((trans-4-(3-(6-Cyano-5-(trifluoromethyl)pyridin-3-yl)-5,5-dimethyl-4-oxo-2-thioxoimidazolidin-1-yl)cyclohexyl)oxy)propyl)-2,6-dimethylpiperazin-1-yl)-N-(4-(2,6-dioxopiperidin-3-yl)phenyl)acetamide hydrochloride] was tested. Which DC50 did it give?
Answer: ≤ 0.005 µM

Question: What about the Ymin of the same molecule?
Answer: ** (20%<Y≤30%)

Question: What does the source list for `C[C@@H]1CN(CCCO[C@H]2CC[C@H](N3C(=S)N(c4ccc(C#N)c(Cl)c4)C(=O)C3(C)C)CC2)C[C@H](C)N1CC(=O)Nc1ccc(C2CCC(=O)NC2=O)cc1` (stereo partly drawn) [Cmpd 14, 2-((2R,6S)-4-(3-((trans-4-(3-(3-Chloro-4-cyanophenyl)-5,5-dimethyl-4-oxo-2-thioxoimidazolidin-1-yl)cyclohexyl)oxy)propyl)-2,6-dimethylpiperazin-1-yl)-N-(4-(2,6-dioxopiperidin-3-yl)phenyl)acetamide hydrochloride]?
Answer: DC50: ≤ 0.005 µM; Ymin: * (0<Y≤20%)
